Assay [1] addresses T1, HsCDK9/CyclinT (Homo sapiens, UniProt P50750).
T1 construct: made in house; host or cells: Sf9 insect cells (baculovirus)
The experiment in a line: ADP-Glo in vitro kinase inhibition assay, CDK9/CyclinT. The assay is classed as biochemical. The following applies: 10 μM ATP, read-out: CDK9 % residual activity; for remaining activity at 1 µM: 1 μM compound; for remaining activity at 10 µM: 10 μM compound. On the procedure:
(§1) We previouly reported that substitution at the 3-position with halogen atoms or pyridinyl or formyl groups was compatible with high potency toward Haspin kinase. To check if the current structural changes were in line with potent Haspin inhibition and high selectivity, enabling consideration of these compounds as possible targeting ligands for the PROTAC approach, compounds 2, 3, 8–11, and 15–17 were evaluated toward a panel of eight protein kinases, including Haspin, as well as other kinases known to be frequently cross-inhibited (CLK1, DYRK1A, CDK9/Cyclin T, GSK-3β, CK1ε, CDK5/p25, and Pim1) (Table 1). The percentage of residual kinase activity was evaluated at 10 μM and 1 μM compound concentrations. […].
(§2) Kinase inhibition was tested in 384-well plates using the ADP-GloTM assay kit (Promega, Madison, WI, USA) according to the procedure recommended by the manufacturer. Reactions were set up in a final volume of 6 μL in an appropriate kinase buffer (10 mM MgCl2, 1 mM EGTA, 1 mM DTT, 25 mM Tris-HCl pH 7.5, 50 μg/mL heparin) with either protein or peptide as the substrate in the presence of 10 μM ATP. To stop the kinase reaction, 6 μL of ADP-GloTM Kinase Reagent was added after 30 min at 30 °C. Then, after 50 min of incubation at room temperature (RT), 12 μL of Kinase Detection Reagent was added. The transmitted signal was measured after 1 h at RT using the Envision (Perkin Elmer, Waltham, MA, USA) microplate luminometer and expressed in relative light units (RLU). In order to determine the half-maximal inhibitory concentration (IC50), all assays were performed in duplicate in the absence or presence of increasing doses of the tested compounds. GraphPad Prism10 software (GraphPad Software, San Diego, CA, USA) was used to fit dose–response curves and to determine the IC50 values. Kinase activities are given as percentages of maximal activity, i.e., measured in the absence of inhibitor. Peptide substrates were obtained from Proteogenix (Schiltigheim, France).
(§3) The following protein kinases were analyzed in this study: CDK5/p25 (human, vector pGEX-2T, expressed in bacteria; kindly provided by Dr. J. H. Wang) was assayed with 0.8 μg/μL of histone H1 as substrate; HsCDK9/CyclinT (NP_001252/KAI4065659, cloned in pTEFb vector, expressed by baculovirus in Sf9 insect cells) were assayed with 0.27 μg/μL of the following peptide: […], as substrate; HsCK1ε (NP_001885, cloned in pFAST-BAC vector, expressed in Sf9 insect cells) was assayed with 0.022 μg/μL of the following peptide: […]pAYSITA (“Sp” stands for phosphorylated serine) as CK1-specific substrate; HsGSK3β (AAH12760, cloned in pFAST-BAC, expressed by baculovirus in Sf9 insect cells) were assayed with 0.010 μg/μL of GS-1 peptide, a GSK-3-selective substrate ([…]pEDEEE); HsHaspin-kd (NP_114171, kinase domain, amino acids 470–798 cloned in pGEX-6P-3, expressed in bacteria) was assayed with 0.007 μg/μL of histone H3 (1–21) peptide ([…]) as substrate; Pim-1 (KAI4018123, expressed in bacteria) was assayed with 0.8 μg/μL of histone H1 as substrate; HsCLK1 (NP_004062, cloned in pFAST-BAC, expressed in Sf9 insect cells) was assayed with 0.027 μg/μL of the peptide: […]; RnDYRK1A-kd (Rattus norvegicus, amino acids 1–499, pGEX-2TK, expressed in bacteria, gift from Dr. W. Becker, Aachen, Germany) was tested in the presence of 0.033 μg/μL of the peptide: […].
A general note: In ADP-Glo the light output rises with the ADP produced.

Assay [2] deals with T2, CDK5/p25 (Homo sapiens, UniProt Q00535).
T2 construct: made in house; host or cells: bacteria
Nature of the assay: ADP-Glo in vitro kinase inhibition assay, CDK5/p25. The assay is classed as biochemical. The settings on record: 10 μM ATP, read-out: CDK5 % residual activity; for remaining activity at 1 µM: 1 μM compound; for remaining activity at 10 µM: 10 μM compound. Here is the method: as §1, §2, §3

Assay [3] deals with endogenous Haspin kinase (phosphorylation of Histone H3 on Thr3) in U2OS cells. Nature of the assay: H3T3ph immunofluorescence assay in U2OS cells (cellular endogenous Haspin activity). The assay is classed as cell-based. The following applies: 2.5 μM compound, 16 h, early mitotic cells; for inhibition at 2.5 µM: Homo sapiens, read-out: Inhibition of endogenous Haspin activity (H3T3 phosphorylation) compared to DMSO control. Here is the method: In order to assess the ability of our most interesting compounds to inhibit cellular endogenous Haspin kinase, we evaluated their effects on the phosphorylation of Histone H3 on Thr3, a bona fide Haspin substrate (Figure 4). We treated osteosarcoma U2OS cells with 2.5 μM of selected compounds for 16 h before quantifying H3T3 phosphorylation by immunofluorescence on early mitotic cells (Figure 4A,B). […] This discrepency could be explained by the inability of this compound to cross the plasma membrane or by reduced stability in a cellular environment.
Ethical approval for this study was obtained (9 July 2025) from DGRI-LabOGM (APPROVAL NUMBER: L1-2373). U2OS cells (purchased from ATCC, Manassas, VA, USA, reference HTB-96) were grown in DMEM medium (Dulbecco’s Modified Eagle Medium, High glucose; GlutaMAX, Life Technologies, Carlsbad, CA, USA) supplemented with 10% fetal bovine serum (Gibco, Grand Island, NY, USA) in a 5% CO2 humidified atmosphere. Cells grown on coverslips were treated for 16 h with each compound or 0.025% DMSO, then fixed with 4% paraformaldehyde in PBS, permeabilized by 0.15% Triton-X100 for 2 min, and blocked for 12 min in 4% BSA in PBS. Immunofluorescence assay was performed using standard protocols with a rabbit anti-phospho-Thr3 Histone H3 and a mouse anti-a-Tubulin (B-5-1-2) obtained from Merck Millipore, Burlington, MA, USA (1/2000 dilution). Coverslips were mounted with Vectashield containing DAPI (Vector Laboratories, Newark, CA, USA). Images were acquired with a Coolsnap HQ2 CCD camera (Photometrics, Tucson, AZ, USA) on a Zeiss Axio microscope (Carl Zeiss, Oberkochen, Germany) using a 63x NA 1.46 objective. Image acquisition and processing were performed using Zen Blue (Carl Zeiss). The H3T3ph signal on chromosomes was normalized against the DAPI signal and analyzed using ImageJ software (NIH, Version 1.54p). Graphs were produced and statistical analysis was performed using GraphPad Prism 10. p-values were determined by t-test; n.s., not significant; **** p ≤ 0.0001.
Figure 4 Evaluation of selected compounds on cellular endogenous Haspin activity. (A) U2OS cells were treated with 2.5 μM of each compound or 1 μM of CHR6494 (CHR) or DMSO for 16 h. Immunofluorescence assay was performed with anti-pH3T3 antibody (green) and anti-a-Tubulin (red); DNA was labelled with DAPI (blue). Representative images of early mitotic cells for each condition are presented. Scale bar: 5 μm. (B) Scatter plot representing H3T3ph/DAPI signal ratio indicative of Haspin activity; n > 17 mitotic cells per condition. n.s., not significant; **** p ≤ 0.0001.

What is called inhibition is how much of the control response was suppressed.

T2 sequence (Q00535 whole entry): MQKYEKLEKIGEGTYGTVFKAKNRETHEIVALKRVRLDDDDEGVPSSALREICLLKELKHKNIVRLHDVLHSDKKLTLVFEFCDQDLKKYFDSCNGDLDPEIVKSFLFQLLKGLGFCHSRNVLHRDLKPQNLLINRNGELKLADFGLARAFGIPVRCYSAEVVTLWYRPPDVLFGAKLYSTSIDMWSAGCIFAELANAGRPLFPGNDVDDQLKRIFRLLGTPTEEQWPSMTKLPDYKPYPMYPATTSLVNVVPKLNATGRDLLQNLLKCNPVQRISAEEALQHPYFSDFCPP
T2 sequence (Q15078 99-307 partner limits assumed): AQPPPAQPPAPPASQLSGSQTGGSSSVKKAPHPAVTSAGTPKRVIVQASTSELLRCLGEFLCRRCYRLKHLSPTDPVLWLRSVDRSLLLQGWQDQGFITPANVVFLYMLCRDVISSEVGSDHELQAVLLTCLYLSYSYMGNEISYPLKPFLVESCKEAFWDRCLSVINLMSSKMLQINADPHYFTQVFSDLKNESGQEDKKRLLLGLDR
T1 sequence (P50750 whole entry): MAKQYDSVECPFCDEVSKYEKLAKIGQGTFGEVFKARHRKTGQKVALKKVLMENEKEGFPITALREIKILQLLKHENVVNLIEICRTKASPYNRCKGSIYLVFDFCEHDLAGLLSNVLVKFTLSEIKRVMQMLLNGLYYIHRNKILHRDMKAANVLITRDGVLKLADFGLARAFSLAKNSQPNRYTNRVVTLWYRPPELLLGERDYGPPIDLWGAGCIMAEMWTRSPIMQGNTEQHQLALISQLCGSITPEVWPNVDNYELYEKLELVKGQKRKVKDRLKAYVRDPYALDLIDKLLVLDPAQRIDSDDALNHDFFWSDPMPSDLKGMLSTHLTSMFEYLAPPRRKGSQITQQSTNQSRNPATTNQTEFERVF
T1 sequence (O60563 whole entry partner): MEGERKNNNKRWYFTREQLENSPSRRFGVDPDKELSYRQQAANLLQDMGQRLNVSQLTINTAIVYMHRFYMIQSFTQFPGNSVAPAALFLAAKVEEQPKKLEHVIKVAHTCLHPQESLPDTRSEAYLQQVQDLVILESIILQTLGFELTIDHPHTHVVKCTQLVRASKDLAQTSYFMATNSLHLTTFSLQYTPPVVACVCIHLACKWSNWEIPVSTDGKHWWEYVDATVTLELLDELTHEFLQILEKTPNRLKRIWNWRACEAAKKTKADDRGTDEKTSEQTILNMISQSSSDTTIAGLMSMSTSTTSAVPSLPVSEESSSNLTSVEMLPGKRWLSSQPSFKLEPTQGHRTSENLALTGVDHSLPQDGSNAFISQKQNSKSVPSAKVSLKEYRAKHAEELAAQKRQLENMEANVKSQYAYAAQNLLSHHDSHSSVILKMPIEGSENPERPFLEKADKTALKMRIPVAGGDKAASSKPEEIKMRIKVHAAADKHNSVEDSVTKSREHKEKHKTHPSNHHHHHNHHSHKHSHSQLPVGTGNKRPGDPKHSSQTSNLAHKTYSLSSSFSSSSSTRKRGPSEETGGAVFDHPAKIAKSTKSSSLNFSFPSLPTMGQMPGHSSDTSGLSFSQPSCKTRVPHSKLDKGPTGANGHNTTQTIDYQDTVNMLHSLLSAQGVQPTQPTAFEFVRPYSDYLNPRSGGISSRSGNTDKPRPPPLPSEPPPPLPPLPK

As to `Nc1ccc(-c2c[nH]c3cc4cnccc4cc23)cn1` [Compound 3, 5-(1H-Pyrrolo[3,2-g]isoquinolin-3-yl)pyridin-2-amine], in assay [1], the remaining activity at 1 µM was found to be 83% and the remaining activity at 10 µM came to 44%. In addition, in assay [2], the remaining activity at 1 µM amounted to 100% and the remaining activity at 10 µM is 100%. Also, the inhibition at 2.5 µM in assay [3] was about 43%.
As to `COC(=O)/C=C/c1c[nH]c2cc3cnccc3cc12` [Compound 8, Methyl (E)-3-(1H-Pyrrolo[3,2-g]isoquinolin-3-yl)prop-2-enoate], in assay [1], the remaining activity at 1 µM came out at 79% and the remaining activity at 10 µM came out at 51%. For the same molecule, in assay [2], the remaining activity at 1 µM was 72% and the remaining activity at 10 µM stood at 100%. Moreover, in assay [3], the “Inhibition of endogenous Haspin activity (H3T3 phosphorylation) compared to DMSO control” value was “did not show any significant inhibitory potential”.
In the case of `c1cc2cc3c(-c4cc[nH]n4)c[nH]c3cc2cn1` [Compound 15, 3-(1H-Pyrazol-3-yl)-1H-pyrrolo[3,2-g]isoquinoline], in assay [2], the remaining activity at 1 µM turned out to be 98% and the remaining activity at 10 µM was found to be 76%. The inhibition at 2.5 µM in assay [3] was 66%.
Take `c1cc2cc3c(-c4cn[nH]c4)c[nH]c3cc2cn1` [Compound 16, 3-(1H-Pyrazol-4-yl)-1H-pyrrolo[3,2-g]isoquinoline]: in assay [2], the remaining activity at 1 µM stood at 91% and the remaining activity at 10 µM came out at 10%. Further, the inhibition at 2.5 µM in assay [3] was 77%.
As for `c1c[nH]c(-c2c[nH]c3cc4cnccc4cc23)c1` [Compound 17, 3-(1H-Pyrrol-2-yl)-1H-pyrrolo[3,2-g]isoquinoline], in assay [1], the remaining activity at 1 µM stood at 76% and the remaining activity at 10 µM was 39%. In assay [2], the remaining activity at 1 µM worked out at 75% and the remaining activity at 10 µM was 81%. The inhibition at 2.5 µM in assay [3] is about 43%.

Values taken from PMC12655252, “Synthesis of 1H-Pyrrolo[3,2-g]isoquinoline Derivatives as Ligands Targeting Haspin Kinase” (Molecules, 2025).
